From patent US20240246941A1, “SUBSTITUTED 4-(3-AMINOPROP-1-YL)AMINOQUINOLINE ANALOGS AS MODULATORS OF MELANOMA-ASSOCIATED ANTIGEN 11 UBIQUITIN LIGASE” (ST. JUDE CHILDREN'S RESEARCH HOSPITAL, INC., priority 2020, published 2024) come the findings set out here.

interaction between GST-MAGEA11 MHD and FAM-PCF11_4 peptide (MAGE-A11:PCF11), sequence (P43364 218-429): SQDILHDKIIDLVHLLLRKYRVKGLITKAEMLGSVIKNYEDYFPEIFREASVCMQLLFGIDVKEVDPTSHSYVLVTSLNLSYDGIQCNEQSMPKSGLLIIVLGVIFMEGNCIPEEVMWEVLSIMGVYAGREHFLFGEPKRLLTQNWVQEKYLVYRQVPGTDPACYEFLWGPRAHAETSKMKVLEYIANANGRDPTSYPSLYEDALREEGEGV

One experiment deals with interaction between GST-MAGEA11 MHD and FAM-PCF11_4 peptide (MAGE-A11:PCF11) (Homo sapiens (Human), UniProt P43364). The experiment in a line: TR-FRET dose response competition assay for disruption of MAGE-A11:PCF11 binding. The following applies: Dose response TR-FRET screening of nine scaffold groups against MAGE-A11:PCF11; read-out: consensus IC50. The method, boiled down:
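Competition TR-FRET at room temperature in 50 mM Tris pH 7.5, 20 mM MgCl2, 0.1 mg/ml BSA, 1 mM DTT: final 5 nM GST-MAGEA11 MHD, 5 nM Tb-anti-GST, 200 nM FAM-PCF11_4, 90 min. Ratio 520/490 nm converted to % inhibition; IC50 from sigmoidal fit.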
Background: Time-resolved FRET reads energy transfer from a long-lived donor to a nearby acceptor.
Usually IC50 stands for the concentration that inhibits the measured activity by half. For the compound `COc1cccc(CNCCCNc2ccnc3cc(CCc4ccccc4)ccc23)c1O` [SJ000311255-1], the IC50 came to 26.5 µM.
On the same count and under the same terms, with `COc1ccc(F)cc1CNCCCNc1ccnc2cc(CCc3ccccc3)ccc12` [SJ000311256-1] the figure was 37.1 µM.
Still for that read-out and setting: with `c1ccc(CCc2ccc3c(NCCCNCc4cccc5c4OCO5)ccnc3c2)cc1` [SJ000311257-1] the figure was 62.3 µM; with `COc1cccc(CNCCCNc2ccnc3cc(CC(C)C)ccc23)c1O` [SJ000311259-1], 68.5 µM; with `CC(C)Cc1ccc2c(NCCCNCc3cccc4c3OCO4)ccnc2c1` [SJ000311260-1], 69.9 µM.
Still for that read-out and setting: the value for `COc1ccc(F)cc1CNCCCNc1ccnc2cc(CC(C)C)ccc12` [SJ000311261-1] was 69.9 µM; that for `COc1cccc(CNCCCNc2ccnc3cc(C4CCCCC4)ccc23)c1O` [SJ000311263-1] was 32.4 µM.
`c1cc(CNCCCNc2ccnc3cc(C4CCCCC4)ccc23)c2c(c1)OCO2` [SJ000311264-1]: the IC50 was 23.7 µM.
Still for that read-out and setting: with `COc1ccc(F)cc1CNCCCNc1ccnc2cc(C3CCCCC3)ccc12` [SJ000311265-1] the figure was 24.2 µM.
As for `CCC(CC)c1ccc2c(NCCCNCc3cccc(OC)c3O)ccnc2c1` [SJ000311267-1], the IC50 came to 9.95 µM.
The same measure, in the same setting: the value for `CCC(CC)c1ccc2c(NCCCNCc3cccc4c3OCO4)ccnc2c1` [SJ000311268-1] was 28.9 µM.
The same measure, in the same setting: the value for `CCC(CC)c1ccc2c(NCCCNCc3cc(F)ccc3OC)ccnc2c1` [SJ000311269-1] was 43 µM; that for `COc1cccc(CNCCCNc2ccnc3cc(-c4cc(C(F)(F)F)cc(C(F)(F)F)c4)ccc23)c1O` [SJ000311271-1] was 69.9 µM; that for `FC(F)(F)c1cc(-c2ccc3c(NCCCNCc4cccc5c4OCO5)ccnc3c2)cc(C(F)(F)F)c1` [SJ000311272-1] was 9.02 µM.
With `COc1ccc(F)cc1CNCCCNc1ccnc2cc(-c3cc(C(F)(F)F)cc(C(F)(F)F)c3)ccc12` [SJ000311273-1], the IC50 was 7.69 µM.
For the compound `COc1cccc(CNCCCNc2ccnc3cc(-c4cccc5ccccc45)ccc23)c1O` [SJ000311275-1], the IC50 was 16 µM.
On the same count and under the same terms, with `c1cc(CNCCCNc2ccnc3cc(-c4cccc5ccccc45)ccc23)c2c(c1)OCO2` [SJ000311276-1] the figure was 31.2 µM; with `COc1ccc(F)cc1CNCCCNc1ccnc2cc(-c3cccc4ccccc34)ccc12` [SJ000311277-1], 10.3 µM; with `COc1cccc(CNCCCNc2ccnc3cc(-c4ccc(C(F)(F)F)cc4)ccc23)c1O` [SJ000311279-1], 9.52 µM.
As for `COc1cccc(CNCCCNc2ccnc3cc(-c4ccccc4)ccc23)c1O` [SJ000311283-1], the IC50 worked out at 24.1 µM.
Take `COc1ccc(F)cc1CNCCCNc1ccnc2cc(-c3ccccc3)ccc12` [SJ000311285-1]: the IC50 was determined as 28.2 µM.
The same measure, in the same setting: the value for `COc1cccc(CNCCCNc2ccnc3cc(-c4ccc(C(C)(C)C)cc4)ccc23)c1O` [SJ000311287-1] was 4.67 µM.
On the same count and under the same terms, the value for `CC(C)(C)c1ccc(-c2ccc3c(NCCCNCc4cccc5c4OCO5)ccnc3c2)cc1` [SJ000311288-1] was 6.87 µM; that for `COc1ccc(F)cc1CNCCCNc1ccnc2cc(-c3ccc(C(C)(C)C)cc3)ccc12` [SJ000311289-1] was 4.62 µM.
Same read-out and setting: with `COc1cccc(CNCCCNc2ccnc3cc(-c4ccc5c(c4)OCO5)ccc23)c1O` [SJ000311291-1] the figure was 24.6 µM; with `c1cc(CNCCCNc2ccnc3cc(-c4ccc5c(c4)OCO5)ccc23)c2c(c1)OCO2` [SJ000311292-1], 30.5 µM; with `COc1ccc(F)cc1CNCCCNc1ccnc2cc(-c3ccc4c(c3)OCO4)ccc12` [SJ000311293-1], 29.9 µM.
Consider `COc1ccc(-c2ccc3c(NCCCNCc4cccc(OC)c4O)ccnc3c2)cc1` [SJ000311295-1], for which the IC50 came to 69.9 µM.
On the same count and under the same terms, with `COc1ccc(-c2ccc3c(NCCCNCc4cccc5c4OCO5)ccnc3c2)cc1` [SJ000311296-1] the figure was 69.9 µM; with `COc1ccc(-c2ccc3c(NCCCNCc4cc(F)ccc4OC)ccnc3c2)cc1` [SJ000311297-1], 69.9 µM; with `COc1cccc(CNCCCNc2ccnc3cc(Cc4cccc(C(F)(F)F)c4)ccc23)c1O` [SJ000311299-1], 27.5 µM.

Still in this experiment, the particulars now being: Table 5, dose response TR-FRET screening of 59 quinoline compounds against MAGE-A11:PCF11; read-out: TR-FRET IC50.
As to `c1coc(CNCCCNc2ccnc3cc(C4CCCCC4)ccc23)c1` [SJ000311262-1], the half-maximal inhibitory concentration (IC50) was more than 70 µM.
`c1coc(CNCCCNc2ccnc3cc(-c4cccc5ccccc45)ccc23)c1` [SJ000311274-1]: the concentration for half-maximal inhibition (IC50) is more than 70 µM.
Same read-out and setting: the value for `FC(F)(F)c1ccc(-c2ccc3c(NCCCNCc4ccco4)ccnc3c2)cc1` [SJ000311278-1] was 22.7 µM; that for `c1coc(CNCCCNc2ccnc3cc(-c4ccc5c(c4)OCO5)ccc23)c1` [SJ000311290-1] was more than 70 µM.

The same experiment, now with this note: Table 6, 4-aminoquinoline compounds; read-out: TR-FRET, IC50.
For the compound `FC(F)(F)c1ccc(-c2ccc3c(NCCCNCc4cccc5c4OCO5)ccnc3c2)cc1` [SJ000311280-01], the IC50 worked out at 4.07 µM.
Same read-out and setting: the value for `COc1ccc(F)cc1CNCCCNc1ccnc2cc(-c3ccc(C(F)(F)F)cc3)ccc12` [SJ000311281-01] was 5.58 µM.
The same measure, in the same setting: with `c1ccc(-c2ccc3c(NCCCNCc4cccc5c4OCO5)ccnc3c2)cc1` [SJ000311284-01] the figure was 20.6 µM.

Staying with this experiment, now noted: Table 8, representative compounds; read-out: TR-FRET IC50.
As for `COc1cccc(CNCCCNc2ccnc3cc(CCc4ccccc4)ccc23)c1O` [SJ000311255], the IC50 is 26.6 µM.
On the same count and under the same terms, the value for `COC1CCCC(F)CC1CNCCCNc1ccnc2cc(CCc3ccccc3)ccc12` (stereo not drawn) [SJ000311256] was 37.1 µM.
On the same count and under the same terms, with `c1ccc(CCc2ccc3c(NCCCNCc4cccc5c4OCO5)ccnc3c2)cc1` [SJ000311257] the figure was 62.3 µM; with `COc1cccc(CNCCC/N=C2/C=CNC3=CC=C(CC(C)C)C=CC32)c1O` (stereo not drawn) [SJ000311259], 68.5 µM.
The same measure, in the same setting: the value for `CC(C)Cc1ccc2c(NCCCNCc3cccc4c3OCO4)ccnc2c1` [SJ000311260] was 69.9 µM; that for `COc1ccc(F)cc1CNCCCNc1ccnc2cc(CC(C)C)ccc12` [SJ000311261] was 69.9 µM; that for `COc1cccc(CNCCCNc2ccnc3cc(C4CCCCC4)ccc23)c1O` [SJ000311263] was 32.4 µM.
For the compound `c1cc(CNCCCNc2ccnc3cc(C4CCCCC4)ccc23)c2c(c1)OCO2` [SJ000311264], the half-maximal inhibitory concentration (IC50) stood at 23.7 µM.
On the same count and under the same terms, the value for `COc1ccc(F)cc1CNCCCNc1ccnc2cc(C3CCCCC3)ccc12` [SJ000311265] was 24.2 µM.
Still for that read-out and setting: with `CCC(CC)c1ccc2c(NCCCNCc3cccc(OC)c3O)ccnc2c1` [SJ000311267] the figure was 9.95 µM.
Still for that read-out and setting: with `CCC(CC)c1ccc2c(NCCCNCc3cccc4c3OCO4)ccnc2c1` [SJ000311268] the figure was 28.9 µM; with `CCC(CC)c1ccc2c(NCCCNCc3cc(F)ccc3OC)ccnc2c1` [SJ000311269], 43 µM.
With `COc1cccc(CNCCCNc2ccnc3cc(-c4cc(C(F)(F)F)cc(C(F)(F)F)c4)ccc23)c1O` [SJ000311271], the 50% inhibitory concentration (IC50) stood at 69.9 µM.
On the same count and under the same terms, with `FC(F)(F)c1cc(-c2ccc3c(NCCCNCc4cccc5c4OCO5)ccnc3c2)cc(C(F)(F)F)c1` [SJ000311272] the figure was 9.02 µM; with `COc1ccc(F)cc1CNCCCNc1ccnc2cc(-c3cc(C(F)(F)F)cc(C(F)(F)F)c3)ccc12` [SJ000311273], 7.69 µM.
Turning to `COc1cccc(CNCCCNc2ccnc3cc(C4=CC=CC5=CC=CC=CC54)ccc23)c1O` (stereo not drawn) [SJ000311275], the concentration for half-maximal inhibition (IC50) was found to be 16 µM.
Same read-out and setting: with `c1cc(CNCCCNc2ccnc3cc(-c4cccc5ccccc45)ccc23)c2c(c1)OCO2` [SJ000311276] the figure was 31.2 µM; with `COc1ccc(F)cc1CNCCCNc1ccnc2cc(-c3cccc4ccccc34)ccc12` [SJ000311277], 10.3 µM; with `COc1cccc(CNCCCNc2ccnc3cc(-c4ccc(C(F)(F)F)cc4)ccc23)c1O` [SJ000311279], 9.52 µM.
As for `FC(F)(F)c1ccc(-c2ccc3c(NCCCNCc4cccc5c4OCO5)ccnc3c2)cc1` [SJ000311280-01], the IC50 worked out at 15.7 µM.
Still for that read-out and setting: with `COc1ccc(F)cc1CNCCCNc1ccnc2cc(-c3ccc(C(F)(F)F)cc3)ccc12` [SJ000311281-01] the figure was 13.4 µM; with `COc1cccc(CNCCCNc2ccnc3cc(-c4ccccc4)ccc23)c1O` [SJ000311283], 24.1 µM; with `c1ccc(-c2ccc3c(NCCCNCc4cccc5c4OCO5)ccnc3c2)cc1` [SJ000311284-01], 22.2 µM.
Same read-out and setting: the value for `COc1ccc(F)cc1CNCCCNc1ccnc2cc(-c3ccccc3)ccc12` [SJ000311285] was 28.2 µM; that for `COc1cccc(CNCCCNc2ccnc3cc(-c4ccc(C(C)(C)C)cc4)ccc23)c1O` [SJ000311287] was 4.67 µM; that for `CC(C)(C)c1ccc(-c2ccc3c(NCCCNCc4cccc5c4OCO5)ccnc3c2)cc1` [SJ000311288] was 6.87 µM.
Still for that read-out and setting: the value for `COc1ccc(F)cc1CNCCCNc1ccnc2cc(-c3ccc(C(C)(C)C)cc3)ccc12` [SJ000311289] was 2.04 µM; that for `COc1cccc(CNCCCNc2ccnc3cc(-c4ccc5c(c4)OCO5)ccc23)c1O` [SJ000311291] was 24.6 µM; that for `c1cc(CNCCCNc2ccnc3cc(-c4ccc5c(c4)OCO5)ccc23)c2c(c1)OCO2` [SJ000311292] was 30.5 µM.
For the compound `COc1ccc(F)cc1CNCCNc1ccnc2cc(-c3ccc4c(c3)OCO4)ccc12` [SJ000311293], the IC50 is 29.9 µM.
On to `COc1ccc(-c2ccc3c(NCCCNCc4cccc(OC)c4O)ccnc3c2)cc1` [SJ000311295], for which the 50% inhibitory concentration (IC50) came out at 69.9 µM.
With `COc1ccc(-c2ccc3c(NCCCNCc4cccc5c4OCO5)ccnc3c2)cc1` [SJ000311296], the half-inhibitory concentration (IC50) amounted to 69.9 µM.
On the same count and under the same terms, with `COc1ccc(-c2ccc3c(NCCCNCc4cc(F)ccc4OC)ccnc3c2)cc1` [SJ000311297] the figure was 69.9 µM; with `COc1cccc(CNCCCNc2ccnc3cc(Cc4cccc(C(F)(F)F)c4)ccc23)c1O` [SJ000311299], 27.5 µM.

The same experiment, now with this note: read-out: IC50 by TR-FRET for disrupting MAGE-A11:PCF11 interaction.
With `FC(F)(F)c1ccc(-c2ccc3c(NCCCNCc4cccc5c4OCO5)ccnc3c2)cc1` [SJ000311280-01], the IC50 amounted to 4.07 µM.
Same read-out and setting: with `COc1ccc(F)cc1CNCCCNc1ccnc2cc(-c3ccc(C(F)(F)F)cc3)ccc12` [SJ000311281-01] the figure was 5.58 µM; with `c1ccc(-c2ccc3c(NCCCNCc4cccc5c4OCO5)ccnc3c2)cc1` [SJ000311284-01], 20.6 µM.
